Tests used:
Plasmodium falciparum [1] = experiment: NOVARTIS: Inhibition of Plasmodium falciparum W2 (drug-resistant) proliferation in erythrocyte-based infection assay; format: functional, organism-based
[2] = NOVARTIS: Cytotoxicity against human hepatocellular carcinoma cell line (Huh7); format: toxicity, cell-based, Huh-7; conditions: Huh7 cells (hepatocellular carcinoma cell line)
Plasmodium falciparum [3] = experiment: NOVARTIS: Inhibition of Plasmodium falciparum 3D7 (drug-susceptible) proliferation in erythrocyte-based infection assay; format: functional, organism-based; conditions: Plasmodium falciparum, 3D7
[4] = Plasmodium falciparum, W2, read-out: EC50

| Compound | EC50 (Plasmodium falciparum [1]; [4]) [nM] | CC50 [2] [nM] | EC50 (Plasmodium falciparum [3]) [nM] | EC50 (Plasmodium falciparum [1]) |
| --- | --- | --- | --- | --- |
| CCCNc1nc(OC(C(F)(F)F)C(F)(F)F)nc(OC(C(F)(F)F)C(F)(F)F)n1 | > 702 | > 10000 | > 1580 |  |
| COc1cc(C(=O)NCc2ccco2)ccc1OC1CCN(CC(c2ccccc2)c2ccccc2)CC1 | 58.7 | > 10000 | 118 |  |
| CCCc1ccc(C(=O)NC(=O)c2ccccc2O)cc1 | 325 | 16500 | 193 |  |
| CCCCn1c(=N)n(CC(O)c2ccc(Cl)c(Cl)c2)c2ccccc21 (configuration not stated) | 120 | 6240 | 62.5 |  |
| Cc1cc(Cl)c(S(=O)(=O)N2CCCC2)cc1OCC(=O)NC1CCCCC1 | 141 | > 100000 | 95.6 |  |
| COc1ccc(C2=C(c3ccc(OC)cc3)C3(c4ccccc4)C(=O)C2(c2ccccc2)C2C(=O)N(c4ccc(C)c(Br)c4)C(=O)C23)cc1 (configuration not stated) | 901 | > 10000 | 734 |  |
| CCOC(=O)C1=C(C)NC2=C(C(=O)C(C(=O)OCC)C(c3ccccc3OC)C2)C1c1sccc1C (configuration not stated) | 235 | > 100000 | 984 |  |
| CCC(Sc1nc(C)cc(-c2ccccc2)n1)C(=O)Nc1cccc2ccccc12 (configuration not stated) | 496 | > 10000 | > 1250 |  |
| C=CC[n+]1c(C=C2C=CN(C)C=C2)sc2ccccc21 | 140 | 24600 | 172 |  |
| CCN(C(=O)CSc1nc(-c2ccc(C(C)C)cc2)no1)c1cccc(C)c1 | 183 | > 100000 | 356 |  |
| Cc1ccn2c(NC(C)(C)CC(C)(C)C)c(-c3ccccc3OC(=O)c3ccco3)nc2c1 | 34.1 | > 10000 | 828 |  |
| CCCCCCOc1ccc(C(C)=NNC2=NCCN2)cc1[N+](=O)[O-] | 791 | 7320 | 228 |  |
| Cc1cccc(N(C)c2nc3ccccc3c3nnc(C)n23)c1 | 134 | > 100000 | 119 |  |
| O=C(Nc1ccc(-c2ccc(Cl)cc2)cc1)c1cccs1 | 225 | > 100000 | 285 |  |
| COc1ccc(/C=C2\N=C(c3ccc(Cl)cc3)N(c3cc(Cl)ccc3C)C2=O)cc1OC | > 949 | > 10000 | > 1250 |  |
| Cc1ccn2c(NC(C)(C)CC(C)(C)C)c(-c3ccccc3OC(=O)c3ccc(C)c([N+](=O)[O-])c3)nc2c1 | 47.7 | > 10000 | 744 |  |
| CC(C)(C)NC(=O)C(C1CC1)N1C(=O)c2cc(O)ccc2NC(=O)[C@@H]1CCCCN (some centres not stated) | 139 | > 10000 | > 1250 |  |
| O=C(Nc1ccccc1C(=O)O)c1cccc(NC(=O)c2ccco2)c1 | 471 | > 10000 | > 947 |  |
| CC(=O)NCCc1ccc(O)cc1 | < 13.7 | > 10000 | > 1670 |  |
| CC(Nc1cc(C)ccn1)=C(C#N)C#N | 795 | > 100000 | 549 |  |
| COc1ccc(C=CC(=O)Nc2ccncc2)cc1OC | 1070 | > 100000 | 358 |  |
| COc1cc(OC)cc(C(=O)N2CCN(Cc3cccc(Br)c3)CC2)c1 | 5920 | > 100000 | > 12500 |  |
| COc1ccc(-n2c(SC(C)C)nc3sc4c(c3c2=O)CCN(C)C4)cc1 | 1850 | > 100000 | 2210 |  |

| Compound | EC50 (Plasmodium falciparum [1]; [4]) [nM] | CC50 [2] [nM] | EC50 (Plasmodium falciparum [3]) [nM] | EC50 (Plasmodium falciparum [1]) |
| --- | --- | --- | --- | --- |
| N#Cc1cc(C#N)c(N2CCN(c3cccc(Cl)n3)CC2)nc1N | 714 | > 10000 | 791 |  |
| COc1cc(OC)cc(C(=O)N(CCCC(C)Nc2cc(OC)cc3cccnc23)Cc2ccc(Cl)cc2)c1 (configuration not stated) | 348 | 9860 | > 439 |  |
| OCCNc1nc(Nc2ccc(Cl)cc2)nc2ccccc12 | 508 | 11600 | 321 |  |
| CC(C)CCNCC(O)Cn1c2ccc(Br)cc2c2cc(Br)ccc21 (configuration not stated) | 88.5 | 19000 | 270 |  |
| COc1ccc2nc(C)cc(Nc3cccc(O)c3)c2c1 | 347 | 51000 | 228 |  |
| N#Cc1c(-c2ccccc2)cc(N2CCN(C3CCCCC3)CC2)n2c1nc1ccccc12 | 932 | > 100000 | 234 |  |
| CCCn1c(=N)c(C(=O)NC2CCCCC2)cc2c(=O)n3cccc(C)c3nc21 | 1290 | > 100000 | 460 |  |
| Cc1cc(Nc2ccc(Cl)c(Cl)c2)n2ncnc2n1 | 674 | > 100000 | 1680 |  |
| Oc1ccc(-c2ccc3c(c2)OCO3)cc1CNC1CCN(Cc2ccccc2)CC1 | 364 | 29900 | 598 |  |
| CCC(=O)N(C)CCCNc1ccnc2cc(Cl)ccc12 | 341 | > 100000 | 467 |  |
| O=C(CSc1nc2ccccc2c(=O)n1-c1ccc(C(=O)N2CCOCC2)cc1)c1ccccc1 | > 1250 | > 10000 | > 772 |  |
| COc1ccc(OC)c(-c2ccc(O)c(CN3CCCC(C)C3)c2)c1 (configuration not stated) | 94.5 | 61000 | 131 |  |
| CN(CCCNc1ccnc2cc(Cl)ccc12)C(=O)C(C)(C)C | 225 | > 10000 | 203 |  |
| CC(C)(C)NCC(O)COc1cccc2oc3ccccc3c12 (configuration not stated) | 653 | > 10000 | > 1250 |  |
| COc1ccc(CNC2CCN(CCN3CCCCC3)C(c3ccc(OCc4ccccc4)cc3)C2)cc1OC (configuration not stated) | 447 | 5060 | 662 |  |
| Cc1cc(NCCCN(C)C)c2ccccc2n1 | 1380 | 53200 | 716 |  |
| CCCOC(=O)C1=C(C)NC2=C(C(=O)CC(c3ccc(OC)c(OC)c3)C2)C1c1ccc([N+](=O)[O-])cc1 (configuration not stated) | 20.5 | > 100000 | 25.9 |  |
| COc1cc(CNc2ccc3nc(N)nc(N)c3c2)cc(OC)c1OC | > 1250 | > 10000 | > 1030 |  |
| CCCCc1ccc(Nc2ncnc3sc4c(c23)CCCC4)cc1 | 3390 | > 100000 | 11400 |  |
| Clc1ccc(Nc2nc(Nc3ccc(Cl)cc3)c3ccccc3n2)cc1 | 110 | 19600 | 148 |  |
| Cc1ccc(S(=O)(=O)N=C(NS(=O)(=O)c2ccc(C)cc2)c2ccccc2)cc1 | > 11200 | > 100000 | > 11200 |  |
| O=C(Nc1ccc(C2=NCCN2)c(Cl)c1)c1cccc(C(=O)Nc2ccc(C3=NCCN3)c(Cl)c2)c1 | 103 | > 10000 | 307 |  |
| CN(C)CCCNc1ncc(C(=O)NCc2ccccc2)c(NCCc2ccccc2)n1 | > 1250 | > 10000 | 817 |  |

| Compound | EC50 (Plasmodium falciparum [1]; [4]) [nM] | CC50 [2] [nM] | EC50 (Plasmodium falciparum [3]) [nM] | EC50 (Plasmodium falciparum [1]) |
| --- | --- | --- | --- | --- |
| COc1ccc([C@]23Oc4cc(OC)cc(OC)c4[C@@]2(O)[C@@H](O)C(C(=O)N(C)C)[C@@H]3c2ccccc2)cc1 (some centres not stated) | 630 | > 10000 | > 602 |  |
| CCc1ccc(Nc2cc(C)nc3nc(C)nn23)cc1 | 768 | > 100000 | 574 |  |
| CC(C)(C)C1=NN(CC(=O)Nc2ccc3c(c2)OCO3)C(=O)c2cc3ccccc3n2C1 | 3160 | 9810 | > 12500 |  |
| OC(COc1ccccc1CNCCN1CCCC1)CN1CCc2ccccc2C1 (configuration not stated) | 1660 | 63400 | 2200 |  |
| C=CCNC(=S)N1CCN(c2ccc([N+](=O)[O-])cc2)CC1 | > 1250 | > 10000 | 2370 |  |
| COc1ccc(Nc2c3c(nc4ccc(NC(=O)c5cc(=O)c6ccccc6o5)cc24)CCCC3)cc1OC | 558 | 11100 | 303 |  |
| O=C(O)CC/C(=C1/C=C(c2ccc(Cl)cc2)NC1=O)c1ccc(Cl)cc1 | 256 | > 10000 | > 1650 |  |
| COc1ccc(CCNc2nc(NCCCN3CCCC3)ncc2C(=O)NCC(C)C)cc1OC | > 1350 | > 10000 | 809 |  |
| O=C1CC(c2ccc([N+](=O)[O-])cc2)C2=C(CC(c3ccc(F)cc3)CC2=O)N1 (configuration not stated) | 1070 | > 100000 | 2020 |  |
| CCCCCCN(C(=O)COc1ccccc1)C(CC)c1nc2ccccc2c(=O)n1-c1cccc(Cl)c1 (configuration not stated) | 4010 | > 100000 | 2740 |  |
| COc1ccc(N2C(=O)c3cccnc3C2=O)cc1 | 665 | > 10000 | 1980 |  |
| c1ccc(-c2csc(Nc3nc4cc5c(cc4s3)OCO5)n2)nc1 | 417 | > 100000 | 650 |  |
| O=C(NCc1cc2cc3c(cc2nc1Cl)OCO3)c1ccco1 | > 1250 | > 10000 | > 586 |  |
| O=C(NCCCCNc1ccnc2cc(Cl)ccc12)c1ccc([N+](=O)[O-])cc1 | 565 | > 10000 | 486 |  |
| CCCCCn1c(SCc2ccc(C)cc2)nc2cc(C(=O)NCc3ccco3)ccc2c1=O | 3160 | > 100000 | > 12500 |  |
| Cc1[nH]c2ccccc2c(=O)c1Br | 686 | > 100000 | 532 |  |
| CCCC1=[N+](CC(=O)c2ccc(C)cc2)CCn2c(C)ccc21 | > 618 | > 10000 | 792 |  |
| CC(=O)c1ccc(OCc2cc(C(=O)N3CCCCC3c3cccnc3)no2)cc1 (configuration not stated) | 1370 | > 100000 | 4210 |  |
| COc1ccc(C(=O)C(C)[n+]2cccc3ccc4cccnc4c32)cc1 (configuration not stated) | > 577 | > 10000 | 195 |  |
| O=C1N(Cc2cc3ccccc3s2)CC2CN(Cc3ccccc3)CCN12 (configuration not stated) | 372 | > 10000 | 436 |  |
| CC(C)Cc1ccc(-c2csc(NC(=O)C3C4CCC(C4)C3C(=O)O)n2)cc1 (configuration not stated) | 1850 | > 100000 | 772 |  |
| CCc1c(C#N)c(N)nc(SCC(=O)c2ccc(C)cc2)c1C#N |  | > 100000 | 1200 | No fit |
| COc1ccc2c(c1)-c1c(ssc1=S)C(C)(C)N2C(=O)c1cccc(Cl)c1 | > 1250 | > 100000 | 1090 |  |

Reference: ChEMBL document CHEMBL1156829 (Proc Natl Acad Sci U S A, 2008)
